Measurements taken from US11358936B2, “Lysyl oxidase-like 2 inhibitors and uses thereof” (PharmAkea, Inc., priority 2015, dated 2022).
Where a name gives a salt, the structure may show the parent alone.

Each compound was assayed against human LOXL2 (Homo sapiens (Human), UniProt Q9Y4K0) (assay: Human LOXL2 Amine Oxidase Activity Assay (Amplex Red fluorescence)). Details: concentrated conditioned media from CHO cells stably expressing human LOXL2; 2 h at 37° C. preincubation; DAP substrate; read-out: IC50.
Assay type: biochemical
Method: LOXL2 amine oxidase activity is evaluated by measuring Amplex Red fluorescence using 10-20× concentrated conditioned media from CHO cells stably expressing human LOXL2. To assay for amine oxidase activity, 10 μL of the concentrated conditioned media is incubated with 2 μL of test compound in DMSO and 73 μL Assay Buffer (50 mM Borate Buffer, pH8) for 2 h at 37° C. After the 2 h incubation, 5 μl of 10 mM 1,5-Diaminopentane (DAP) diluted in Assay Buffer and 10 μl of Amplex Red Mix (8.5 μl Assay Buffer+0.5 μl of 10 mM Amplex Red+1 μl of 500 U/ml Horseradish Peroxidase) are added and the plate mixed and immediately placed on the FlexStaion for fluorescence measurements. Fluorescence is read in kinetic mode every 2 min for 1 hour at excitation=544 and emission=590. The amine oxidase activity is calculated from the slope of the linear portion of the curve.

human LOXL2, sequence (Q9Y4K0 26-774): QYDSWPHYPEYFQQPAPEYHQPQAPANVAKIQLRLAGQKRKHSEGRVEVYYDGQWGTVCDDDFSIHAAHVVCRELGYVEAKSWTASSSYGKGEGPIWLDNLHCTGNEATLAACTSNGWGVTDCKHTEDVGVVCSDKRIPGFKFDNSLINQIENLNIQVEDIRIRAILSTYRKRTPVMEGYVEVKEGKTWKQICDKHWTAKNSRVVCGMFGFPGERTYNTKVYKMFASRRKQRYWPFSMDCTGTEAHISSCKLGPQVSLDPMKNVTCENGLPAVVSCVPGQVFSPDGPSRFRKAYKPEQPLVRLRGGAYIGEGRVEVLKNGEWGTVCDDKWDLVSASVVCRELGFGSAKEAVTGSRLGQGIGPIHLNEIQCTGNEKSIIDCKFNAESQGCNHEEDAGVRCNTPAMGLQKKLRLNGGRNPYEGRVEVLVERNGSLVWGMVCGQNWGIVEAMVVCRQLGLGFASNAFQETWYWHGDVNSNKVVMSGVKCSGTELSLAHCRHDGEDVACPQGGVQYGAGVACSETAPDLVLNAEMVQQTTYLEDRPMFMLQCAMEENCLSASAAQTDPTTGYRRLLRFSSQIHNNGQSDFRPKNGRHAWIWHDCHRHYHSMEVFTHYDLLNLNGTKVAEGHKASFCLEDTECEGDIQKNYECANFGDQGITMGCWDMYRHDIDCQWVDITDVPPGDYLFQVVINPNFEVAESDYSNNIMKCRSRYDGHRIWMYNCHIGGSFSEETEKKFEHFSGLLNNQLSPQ

Row | IC50 | SMILES
1 | < 300 nM | NCc1ccnc(Oc2cccc(C(=O)NCc3cccc(C(=O)O)c3)c2)c1 [Compound 1-35, 3-((3-((4-Aminomethyl)pyridin-2-yl)oxy)benzamido)methyl)benzoic acid hydrochloride]
2 | < 300 nM | NCc1ccnc(Oc2cccc(C(=O)N[C@@H](CO)c3ccccc3)c2)c1 [Compound 1-36, (R)-3-((4-Aminomethyl)pyridin-2-yl)oxy)-N-(2-hydroxy-1-phenylethyl)benzamide hydrochloride]
3 | < 300 nM | NCc1ccnc(Oc2cccc(C(=O)NCc3ccc(-n4ccnc4)c(F)c3)c2)c1 [Compound 1-37, 3-((4-(Aminomethyl)pyridin-2-yl)oxy)-N-(3-fluoro-4-(1H-imidazol-1-yl)benzyl)benzamide dihydrochloride]
4 | < 300 nM | N=C(N)c1cccc(CNC(=O)c2cccc(Oc3cc(CN)ccn3)c2)c1 [Compound 1-39, 3-((4-(Aminomethyl)pyridin-2-yl)oxy)-N-(3-carbamimidoylbenzyl)benzamide dihydrochloride]
5 | < 300 nM | NCc1ccnc(Oc2cccc(C(=O)NCCc3ccccc3)c2)c1 [Compound 1-40, 3-((4-(Aminomethyl)pyridin-2-yl)oxy)-N-phenethylbenzamide hydrochloride]
6 | < 300 nM | NCc1ccnc(Oc2cccc(C(=O)N3CCc4ccccc4C3)c2)c1 [Compound 1-41, (3-((4-(Aminomethyl)pyridin-2-yl)oxy)phenyl)(3,4-dihydroisoquinolin-2(1H)-yl)methanone trifluoroacetate]
7 | < 300 nM | NCc1ccnc(Oc2cccc(C(=O)NCc3cc4ccccc4s3)c2)c1 [Compound 1-42, 3-((4-(Aminomethyl)pyridin-2-yl)oxy)-N-(benzo[b]thiophen-2-ylmethyl)benzamide hydrochloride]
8 | < 300 nM | NCc1ccnc(Oc2cccc(C(=O)NCc3cnccn3)c2)c1 [Compound 1-43, 3-((4-(Aminomethyl)pyridin-2-yl)oxy)-N-(pyrazin-2-ylmethyl)benzamide hydrochloride]
9 | < 300 nM | CCCCCCCCCCCCCNC(=O)c1cccc(Oc2cc(CN)ccn2)c1 [Compound 1-44, 3-((4-(Aminomethyl)pyridin-2-yl)oxy)-N-tridecylbenzamide hydrochloride]
10 | < 300 nM | NCc1ccnc(OCc2cccc(C(=O)Nc3ccccc3)c2)c1 [Compound 1-45, 3-(((4-(Aminomethyl)pyridin-2-yl)oxy)methyl)-N-phenylbenzamide hydrochloride]
11 | < 300 nM | NCc1ccnc(-c2cccnc2)c1 [Compound 2-3, [2,3′-Bipyridin]-4-ylmethanamine]
12 | < 300 nM | NCc1ccnc(-c2ccc(F)cc2)c1 [Compound 2-4, (2-(4-Fluorophenyl)pyridin-4-yl)methanamine]
13 | 300 to 1000 nM | NCc1ccnc(-c2cccc(C(=O)O)c2)c1 [Compound 2-5, hydrochloride]
14 | < 300 nM | NCc1ccnc(Oc2cccc(Oc3ccccc3)c2)c1 [Compound 2-8, (2-(3-Phenoxyphenoxy)pyridin-4-yl)methanamine]
15 | 300 to 1000 nM | NCc1ccnc(Oc2ccc(C(=O)O)cc2)c1 [Compound 2-9, 4-((4-(Aminomethyl)pyridin-2-yl)oxy)benzoic acid hydrochloride]
16 | < 300 nM | NCc1ccnc(Oc2cccc3c2ccn3Cc2ccccc2)c1 [Compound 2-10, (2-((1-Benzyl-1H-indol-4-yl)oxy)pyridin-4-yl)methanamine hydrochloride]
17 | < 300 nM | Cc1cc2c(Oc3cc(CN)ccn3)cccc2n1Cc1ccc(F)cc1F [Compound 2-11, (2-((1-(2,4-Difluorobenzyl)-2-methyl-1H-indol-4-yl)oxy)pyridin-4-yl)methanamine trifluoroacetate]
18 | < 300 nM | Cc1cn(Cc2ccc(F)cc2F)c2cccc(Oc3cc(CN)ccn3)c12 [Compound 2-12, (2-((1-(2,4-Difluorobenzyl)-3-methyl-1H-indol-4-yl)oxy)pyridin-4-yl)methanamine trifluoroacetate]
19 | < 300 nM | COc1ccc(Cn2c(C)cc3c(Oc4cc(CN)ccn4)cccc32)cn1 [Compound 2-13, (2-((1-((6-Methoxypyridin-3-yl)methyl)-2-methyl-1H-indol-4-yl)oxy)pyridin-4-yl)methanamine trifluoroacetate]
20 | < 300 nM | COc1ccc(Cn2cc(C)c3c(Oc4cc(CN)ccn4)cccc32)cn1 [Compound 2-14, (2-((1-((6-Methoxypyridin-3-yl)methyl)-3-methyl-1H-indol-4-yl)oxy)pyridin-4-yl)methanamine trifluoroacetate]

Row | IC50 | SMILES
21 | < 300 nM | NCc1ccnc(Oc2cccc3c2ccn3Cc2ccc(F)cn2)c1 [Compound 2-15, (2-((1-((5-Fluoropyridin-2-yl)methyl)-1H-indol-4-yl)oxy)pyridin-4-yl) methanamine hydrochloride]
22 | < 300 nM | NCc1ccnc(Oc2cccc3c2ccn3Cc2ccc3ccccc3n2)c1 [Compound 2-16, (2-((1-(Quinolin-2-ylmethyl)-1H-indol-4-yl)oxy)pyridin-4-yl)methanamine hydrochloride]
23 | < 300 nM | NCc1ccnc(Oc2cccc3c2ccn3Cc2cnc(C(F)(F)F)s2)c1 [Compound 2-17, (2-((1-((2-(Trifluoromethyl)thiazol-5-yl)methyl)-1H-indol-4-yl)oxy)pyridin-4-ylmethanamine hydrochloride]
24 | < 300 nM | NCc1ccnc(Oc2cccc3c2ccn3-c2ccc(F)cc2)c1 [Compound 2-18, (2-((1-(4-Fluorophenyl)-1H-indol-4-yl)oxy)pyridin-4-yl)methanamine hydrochloride]
25 | < 300 nM | Cn1cc(-n2ccc3c(Oc4cc(CN)ccn4)cccc32)cn1 [Compound 2-19, (2-((1-(1-Methyl-1H-pyrazol-4-yl)-1H-indol-4-yl)oxy)pyridin-4-yl)methanamine hydrochloride]
26 | < 300 nM | COc1ccc(-n2ccc3c(Oc4cc(CN)ccn4)cccc32)cn1 [Compound 2-20, (2-((1-(6-Methoxypyridin-3-yl)-1H-indol-4-yl)oxy)pyridin-4-yl)methanamine hydrochloride]
27 | < 300 nM | NCc1ccnc(Oc2cccc3c2ccn3-c2nc3ccc(F)cc3s2)c1 [Compound 2-21, (2-((1-(6-Fluorobenzo[d]thiazol-2-yl)-1H-indol-4-yl)oxy)pyridin-4-yl)methanamine hydrochloride]
28 | < 300 nM | NCc1ccnc(Oc2cccc3c2ccn3CCc2ccc(F)cc2)c1 [Compound 2-22, (2-((1-(4-Fluorophenethyl)-1H-indol-4-yl)oxy)pyridin-4-yl)methanamine hydrochloride]
29 | < 300 nM | NCc1ccnc(Oc2cccc3c2c(Br)cn3CCc2ccc(F)cc2)c1 [Compound 2-23, (2-((3-Bromo-1-(4-fluorophenethyl)-1H-indol-4-yl)oxy)pyridin-4-yl)methanamine hydrochloride]
30 | < 300 nM | NCc1ccnc(Oc2cccc3c2ccn3C(=O)c2ccccc2)c1 [Compound 2-24, (4-((4-(Aminomethyl)pyridin-2-yl)oxy)-1H-indol-1-yl)(phenyl)methanone hydrochloride]
31 | < 300 nM | NCc1ccnc(Oc2cccc3c2ccn3C(=O)Nc2ccccc2)c1 [Compound 2-25, 4-((4-(Aminomethyl)pyridin-2-yl)oxy)-N-phenyl-1H-indole-1-carboxamide hydrochloride]
32 | < 300 nM | CN(C)C(=O)Cn1ccc2c(Oc3cc(CN)ccn3)cccc21 [Compound 2-26, 2-(4-((4-(Aminomethyl)pyridin-2-yl)oxy)-1H-indol-1-yl)-N,N-dimethylacetamide hydrochloride]
33 | < 300 nM | NCc1ccnc(Oc2cccc3c2ccn3CC(=O)N2CCCCC2)c1 [Compound 2-27, 2-(4-((4-(Aminomethyl)pyridin-2-yl)oxy)-1H-indol-1-yl)-1-(piperidin-1-yl)ethanone hydrochloride]
34 | < 300 nM | CN(C(=O)Cn1ccc2c(Oc3cc(CN)ccn3)cccc21)c1ccccc1 [Compound 2-30, 2-(4-((4-(Aminomethyl)pyridin-2-yl)oxy)-1H-indol-1-yl)-N-methyl-N-phenylacetamide hydrochloride]
35 | < 300 nM | NCc1ccnc(Oc2cccc3c2ccn3CC(=O)N2CCCc3ccccc32)c1 [Compound 2-31, 2-(4-((4-(Aminomethyl)pyridin-2-yl)oxy)-1H-indol-1-yl)-1-(3,4-dihydroquinolin-1(2H)-yl)ethanone hydrochloride]
36 | < 300 nM | NCc1ccnc(Oc2cccc3[nH]ccc23)c1 [Compound 2-32, (2-((1H-Indol-4-yl)oxy)pyridin-4-yl)methanamine trifluoroacetate]
37 | < 300 nM | NCc1ccnc(Oc2cccc3c2CCN3c2nc3ccc(F)cc3s2)c1 [Compound 2-33, (2-((1-(6-Fluorobenzo[d]thiazol-2-yl)indolin-4-yl)oxy)pyridin-4-yl)methanamine hydrochloride]
38 | < 300 nM | Cc1nn(Cc2ccc(F)cc2F)c2cccc(Oc3cc(CN)ccn3)c12 [Compound 2-35, (2-((1-(2,4-Difluorobenzyl)-3-methyl-1H-indazol-4-yl)oxy)pyridin-4-yl)methanamine trifluoroacetate]
39 | < 300 nM | NCc1ccnc(Oc2cccc3c2CCC(=O)N3Cc2ccc(F)cc2F)c1 [Compound 2-36, 5-((4-(Aminomethyl)pyridin-2-yl)oxy)-1-(2,4-difluorobenzyl)-3,4-dihydroquinolin-2(1H)-one hydrochloride]

Row | SMILES | IC50
40 | NCc1ccnc(-c2ccc(C(=O)O)cc2)c1 [Compound 2-6, 4-(4-Aminomethyl)pyridin-2-yl)benzoic acid trifluoroacetate] | 300 to 1000 nM
